These results are taken from patent EP4122917A1, “C2-THIOETHER […] AND TETRAMERS AND USE THEREOF” (priority 2021, dated 2023).

What is called IC50 is the point on the concentration scale where inhibition reaches its midpoint.

In this assay the test system is SARS-CoV-2 virus carrying the D614G mutation in the S protein. It counts as cell-based. To be noted: read-out: IC50 (µM) SARS-CoV-2 (Vero E6).

As for `NCC(=O)NC(CCC(=O)N[C@@H](Cc1c(Sc2ccc([N+](=O)[O-])cc2)[nH]c2ccccc12)C(=O)O)(CCC(=O)N[C@@H](Cc1c(Sc2ccc([N+](=O)[O-])cc2)[nH]c2ccccc12)C(=O)O)CCC(=O)N[C@@H](Cc1c(Sc2ccc([N+](=O)[O-])cc2)[nH]c2ccccc12)C(=O)O` [Compound 7a], the half-maximal inhibitory concentration (IC50) amounted to 3.02 µM.

With `CC(=O)c1ccc(Sc2[nH]c3ccccc3c2C[C@H](NC(=O)CCC(CCC(=O)N[C@@H](Cc2c(Sc3ccc(C(C)=O)cc3)[nH]c3ccccc23)C(=O)O)(CCC(=O)N[C@@H](Cc2c(Sc3ccc(C(C)=O)cc3)[nH]c3ccccc23)C(=O)O)NC(=O)CN)C(=O)O)cc1` [Compound 7c], the IC50 worked out at 13.3 µM.
